Measured values taken from PMC3187794, “Insights into the Complex Formed by Matrix Metalloproteinase-2 and Alloxan Inhibitors: Molecular Dynamics Simulations and Free Energy Calculations” (PLoS ONE, 2011).

Key:
Type in all cases: biochemical
[1] = biological target: T1, MMP-2 (Homo sapiens, UniProt P08253); assay: MMP inhibition fluorimetric assay (pro-fluorescing peptide substrate), MMP-2
T1 sequence (P08253 110-660): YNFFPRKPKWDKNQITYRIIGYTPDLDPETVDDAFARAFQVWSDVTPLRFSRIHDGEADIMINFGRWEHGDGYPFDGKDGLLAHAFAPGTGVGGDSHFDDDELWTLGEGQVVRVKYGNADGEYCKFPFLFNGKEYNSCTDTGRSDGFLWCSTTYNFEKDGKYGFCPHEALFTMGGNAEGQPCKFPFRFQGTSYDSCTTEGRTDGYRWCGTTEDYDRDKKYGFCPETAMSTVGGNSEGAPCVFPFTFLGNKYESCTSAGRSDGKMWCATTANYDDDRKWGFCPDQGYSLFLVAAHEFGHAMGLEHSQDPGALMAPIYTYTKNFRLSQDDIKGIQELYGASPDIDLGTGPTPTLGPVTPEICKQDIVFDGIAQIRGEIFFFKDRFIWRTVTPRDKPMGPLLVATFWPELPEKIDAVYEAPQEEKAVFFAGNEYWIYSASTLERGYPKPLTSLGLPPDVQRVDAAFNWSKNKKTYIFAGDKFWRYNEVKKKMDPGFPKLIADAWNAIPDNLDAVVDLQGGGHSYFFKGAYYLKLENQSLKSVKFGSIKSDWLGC
Protocol: (§1) Inhibitory activities were determined by a fluorimetric assay, where a pro-fluorescing peptide was used as substrate of MMP, and the fluorogenic activity of its cleavage product was measured after co-incubation with test compounds.

[2] = biological target: MMP-9 (Homo sapiens, UniProt P14780); assay: MMP inhibition fluorimetric assay (pro-fluorescing peptide substrate), MMP-9
MMP-9, sequence (P14780 94-707, species assumed): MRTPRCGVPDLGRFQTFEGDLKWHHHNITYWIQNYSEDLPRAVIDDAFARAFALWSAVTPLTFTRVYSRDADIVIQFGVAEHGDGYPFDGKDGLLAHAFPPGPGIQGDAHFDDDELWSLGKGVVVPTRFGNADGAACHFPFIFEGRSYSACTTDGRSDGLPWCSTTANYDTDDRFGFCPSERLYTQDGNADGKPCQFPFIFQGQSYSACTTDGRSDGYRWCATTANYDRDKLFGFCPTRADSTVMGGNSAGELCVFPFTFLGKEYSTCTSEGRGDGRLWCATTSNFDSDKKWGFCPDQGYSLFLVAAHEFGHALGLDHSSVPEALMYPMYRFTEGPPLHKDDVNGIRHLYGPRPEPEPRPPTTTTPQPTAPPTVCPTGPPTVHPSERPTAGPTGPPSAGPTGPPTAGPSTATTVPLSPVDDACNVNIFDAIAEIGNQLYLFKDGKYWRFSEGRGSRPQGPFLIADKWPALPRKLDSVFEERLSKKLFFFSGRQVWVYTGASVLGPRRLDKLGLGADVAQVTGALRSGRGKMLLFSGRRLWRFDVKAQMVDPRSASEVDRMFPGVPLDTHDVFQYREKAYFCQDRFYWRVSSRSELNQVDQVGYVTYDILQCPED
Protocol: as §1

[3] = biological target: MMP-8 (Homo sapiens, UniProt P22894); assay: MMP inhibition fluorimetric assay (pro-fluorescing peptide substrate), MMP-8
MMP-8, sequence (P22894 101-467, species assumed): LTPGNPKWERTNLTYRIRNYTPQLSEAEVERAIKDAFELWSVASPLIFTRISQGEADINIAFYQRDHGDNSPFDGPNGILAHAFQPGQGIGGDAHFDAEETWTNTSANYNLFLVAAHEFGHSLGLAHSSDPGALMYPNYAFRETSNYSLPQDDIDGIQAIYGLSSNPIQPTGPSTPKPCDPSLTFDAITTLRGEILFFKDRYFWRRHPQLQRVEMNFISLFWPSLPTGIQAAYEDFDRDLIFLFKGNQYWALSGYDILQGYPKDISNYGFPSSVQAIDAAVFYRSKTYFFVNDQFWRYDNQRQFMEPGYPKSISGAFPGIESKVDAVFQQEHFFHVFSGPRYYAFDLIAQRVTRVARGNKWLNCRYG
Protocol: as §1

Row | SMILES | inhibition at 100 µM [1] [%] | inhibition at 100 µM [2] [%] | IC50 [3] [µM] | IC50 [1] [µM] | inhibition at 100 µM [3] [%] | IC50 [2] [µM] | selectivity towards MMP-2, as compared to MMP-9 ([1]; MMP-2 vs MMP-9)
1 | O=C1NC(=O)C(O)(CC(=O)c2ccc([N+](=O)[O-])cc2)C(=O)N1 [compound 6] | 0 | 8 | 631 | – | – | – | –
2 | O=C1NC(=O)C(O)(CC(=O)c2ccc(C(F)(F)F)cc2)C(=O)N1 [compound 4] | – | 51 | 8.13 | 38.9 | – | – | –
3 | O=c1[nH]c(=O)c2cc(-c3ccc(C(F)(F)F)cc3)nnc2[nH]1 [compound 2] | 12 | 27 | – | – | 14 | – | –
4 | O=C1NC(=O)C(O)(CC(=O)c2ccc(-c3cccc(Cl)c3)cc2)C(=O)N1 [BCL] | – | – | 4.47 | 60.3 | – | 20 | –
5 | NC(=O)c1ccc(-c2ccc(C(=O)CC3(O)C(=O)NC(=O)NC3=O)cc2)cc1 [BAM] | – | – | 0.589 | 0.0871 | – | 1.82 | > 20
6 | O=C1NC(=O)C(O)(CC(=O)c2ccc(-c3ccccc3)cc2)C(=O)N1 [BAR] | – | – | 0.263 | 0.182 | – | 0.513 | –
7 | O=c1[nH]c(=O)c2cc(-c3ccccc3)nnc2[nH]1 [compound 1] | 0 | 5 | – | – | 0 | – | –
8 | O=C1NC(=O)C(O)(CC(=O)c2ccccc2)C(=O)N1 [compound 3] | 0 | – | 42.7 | – | – | 44.7 | –
9 | COc1ccc(C(=O)CC2(O)C(=O)NC(=O)NC2=O)cc1 [compound 5] | – | – | 6.76 | 21.4 | – | 12.9 | –
